The results in this text go back to patent US11541051B2, “Compositions and methods for treating CDK4/6-mediated cancer” (Icahn School of Medicine at Mount Sinai, priority 2016, dated 2023).

What all share (assay type): cell-based
Assay [1] concerns CDK4/6. The experiment in a line: Characterization of CDK4/6 degraders/disruptors in various breast cancer and melanoma cells (summary, Examples 12 and 13). Here is the method:
Specific exemplary abemaciclib-, ribociclib-, and palbociclib-based CDK4/6 degraders/disruptors were characterized in various different breast cancer and melanoma cells (Examples 12 and 13, FIGS. 10-23). […] This efficacy in suppressing CDK4/6 expression and CDK4/6 activity correlated with efficacy in inhibiting cancer cell proliferation.
(§1) Protein concentrations were determined by BCA from cell lysates and equal amounts of protein are loaded to a Bis-Tris 4-12% gel. Gels were run at 80 V for 4 h using 1× running buffer (25 mM Tris, pH 8.3, […] glycine, 0.1% SDS). Proteins were transferred to a nitrocellulose membrane for 2 h at 100 V using transfer buffer (25 mM Tris, pH 8.3, […] glycine, 20% methanol). Ponceau S staining (0.1% Ponceau S, 1% acetic acid) was used to confirm transfer of proteins to the membrane followed by blocking of the membrane for 30 min at room temperature using blocking buffer (5% dry nonfat milk, 0.1% Tween, 0.02% sodium azide in TBS). The blocked membrane is incubated with primary antibodies (1:1000 dilution) in blocking buffer at 4° C. overnight. When primary phosphor-antibodies were used, then the membrane is incubated with 5% BSA instead of milk. The membrane was washed three times, 10 min each, with wash buffer (0.1% Tween in TBS) followed by incubation with secondary HRP conjugated antibody (1:5000 dilution) in 2.5% dry nonfat milk, 0.1% Tween in TBS for 1 h at room temperature. The membrane was washed three times, 10 min each, with wash buffer (0.1% Tween in TBS). Membranes are incubated with ECL for 1 min and proteins are detected after exposure to a blue autoradiographic film.

A further assay deals with T47D breast cancer cells. The assay can be described thus: Crystal violet staining (clonogenic assay) of T47D breast cancer cells (Example 13, FIGS. 22, 23). To be noted: 11 days. Here is the method: Cells were cultured for 7-11 days in the presence of different compounds. Media with compound was replenished every two days. At the end of the experiment, media was aspirated and viable cells were stained with 0.5% crystal violet dye.

In assay [2] the test system is CDK4/6. The assay can be described thus: Western blot of CDK4, CDK6 and phospho-Rb in A375 melanoma cells treated with degraders (Example 12, FIGS. 12, 13, 16, 18). Particulars: 1 or 3 μM, 24 h. As to the method:
Breast cancer cell lines (MCF7, T47D, and ZR-75-1) and melanoma cell lines (A375, SK-MEL-2, SK-MEL-30, and WM1382) were cultured in the presence of DMEM or RPMI supplemented with 10% FBS in the presence of penicillin and streptomycin.
as §1
A375 melanoma cells (FIG. 13) were treated with 1 or 3 μM Ribociclib (RB), YX030-126, YX030-108, YX030-107, YX030-086, YX030-085 or XY028-133 for 24 h, then lysed and immunoblotted with antibodies to CDK4, CDK6, cyclin A, PLK1, phospho-Rb (pRb), and actin.
A375 melanoma cells (FIG. 16, panel A) were treated with 0.3 or 1 μM XY028-140, YX039-65, YX039-48, YX039-123, YX039-56, YX039-124 or YX039-147 for 24 h. A375 melanoma cells were treated with 1 or 3 μM XY028-140, YX039-56, YX039-65 or XY028-133 (FIG. 16, panel B). Cells were lysed and immunoblotted with antibodies to phospho-Rb (pRb), total Rb, PLK1, cyclin A, CDK4, CDK6, and actin.
A375 melanoma cells (FIG. 18) were treated with 1 or 3 μM XY028-133, YX044-18, YX044-22, XY028-140, YX044-19 or YX044-38 for 24 h, then lysed and immunoblotted with antibodies to phospho-Rb (pRb), total Rb, PLK1, cyclin A, CDK4, CDK6, and actin.

Turning to `CC(=O)c1c(C)c2cnc(Nc3ccc(N4CCN(C(=O)CCCCC(=O)N[C@H](C(=O)N5C[C@H](O)C[C@H]5C(=O)NCc5ccc(-c6scnc6C)cc5)C(C)(C)C)CC4)cn3)nc2n(C2CCCC2)c1=O` [XY028-132, (2S,4R)-1-((S)-2-(6-(4-(6-((6-acetyl-8-cyclopentyl-5-methyl-7-oxo-7,8-dihydropyrido[2,3-d]pyrimidin-2-yl)amino)pyridin-3-yl)piperazin-1-yl)-6-oxohexanamido)-3,3-dimethylbutanoyl)-4-hydroxy-N-(4-(4-methylthiazol-5-yl)benzyl)pyrrolidine-2-carboxamide], in the assay with CDK4/6 [1], the “suppression of both CDK4/6 expression and CDK4/6 activity (summary)” value (shortened to “suppression”) is “especially effective in suppressing both CDK4/6 expression and CDK4/6 activity”.

For `CC(=O)c1c(C)c2cnc(Nc3ccc(N4CCN(C(=O)CCCCCCNc5cccc6c5C(=O)N(C5CCC(=O)NC5=O)C6=O)CC4)cn3)nc2n(C2CCCC2)c1=O` (stereo not shown) [XY028-144, 4-((7-(4-(6-((6-acetyl-8-cyclopentyl-5-methyl-7-oxo-7,8-dihydropyrido[2,3-d]pyrimidin-2-yl)amino)pyridin-3-yl)piperazin-1-yl)-7-oxoheptyl)amino)-2-(2,6-dioxopiperidin-3-yl)isoindoline-1,3-dione], the “suppression” value in the assay with CDK4/6 [1] was “especially effective in suppressing both CDK4/6 expression and CDK4/6 activity”.

With `Cc1nc2c(F)cc(-c3nc(Nc4ccc(CN5CCN(C(=O)CCCCCCC(=O)Nc6cccc7c6C(=O)N(C6CCC(=O)NC6=O)C7=O)CC5)cn4)ncc3F)cc2n1C(C)C` (stereo not shown) [YX26-66, N-(2-(2,6-dioxopiperidin-3-yl)-1,3-dioxoisoindolin-4-yl)-8-(4-((6-((5-fluoro-4-(4-fluoro-1-isopropyl-2-methyl-1H-benzo[d]imidazol-6-yl)pyrimidin-2-yl)amino)pyridin-3-yl)methyl)piperazin-1-yl)-8-oxooctanamide], in the assay with CDK4/6 [1], the “suppression” value was “especially effective in suppressing both CDK4/6 expression and CDK4/6 activity”.

Regarding `CC(=O)c1c(C)c2cnc(Nc3ccc(N4CCN(C(=O)COc5cccc6c5C(=O)N(C5CCC(=O)NC5=O)C6=O)CC4)cn3)nc2n(C2CCCC2)c1=O` (stereo not shown) [YX039-48, 4-(2-(4-(6-((6-acetyl-8-cyclopentyl-5-methyl-7-oxo-7,8-dihydropyrido[2,3-d]pyrimidin-2-yl)amino)pyridin-3-yl)piperazin-1-yl)-2-oxoethoxy)-2-(2,6-dioxopiperidin-3-yl)isoindoline-1,3-dione], the “suppression” value in the assay on CDK4/6 [1] was “especially effective in suppressing both CDK4/6 expression and CDK4/6 activity”.

For `CC(=O)c1c(C)c2cnc(Nc3ccc(N4CCN(C(=O)CCc5cccc6c5C(=O)N(C5CCC(=O)NC5=O)C6)CC4)cn3)nc2n(C2CCCC2)c1=O` (stereo not shown) [YX039-56, 3-(7-(3-(4-(6-((6-acetyl-8-cyclopentyl-5-methyl-7-oxo-7,8-dihydropyrido[2,3-d]pyrimidin-2-yl)amino)pyridin-3-yl)piperazin-1-yl)-3-oxopropyl)-1-oxoisoindolin-2-yl)piperidine-2,6-dione], the “suppression” value in the assay on CDK4/6 [1] was “especially effective in suppressing both CDK4/6 expression and CDK4/6 activity”. The “inhibition of cancer cell proliferation compared with palbociclib (crystal violet staining)” value in the assay on T47D breast cancer cells (0.003, 0.01 or 0.03 μM) was “inhibited cancer cell proliferation more effective that palbociclib at the same concentration”; in the assay with T47D breast cancer cells (0.03, 0.1, 0.3, 1 or 3 μM), “inhibited cancer cell proliferation more effective that palbociclib at the same concentration”.

With `CC(=O)c1c(C)c2cnc(Nc3ccc(N4CCN(C(=O)CNc5cccc6c5CN(C5CCC(=O)NC5=O)C6=O)CC4)cn3)nc2n(C2CCCC2)c1=O` (stereo not shown) [YX039-65, 3-(4-((2-(4-(6-((6-acetyl-8-cyclopentyl-5-methyl-7-oxo-7,8-dihydropyrido[2,3-d]pyrimidin-2-yl)amino)pyridin-3-yl)piperazin-1-yl)-2-oxoethyl)amino)-1-oxoisoindolin-2-yl)piperidine-2,6-dione], in the assay with CDK4/6 [1], the “suppression” value is “especially effective in suppressing both CDK4/6 expression and CDK4/6 activity”. Further, the “inhibition of cancer cell proliferation compared with palbociclib (crystal violet staining)” value with T47D breast cancer cells (0.003, 0.01 or 0.03 μM) is reported as “inhibited cancer cell proliferation more effective that palbociclib at the same concentration”; with T47D breast cancer cells (0.03, 0.1, 0.3, 1 or 3 μM) it was “inhibited cancer cell proliferation more effective that palbociclib at the same concentration”.

For `CC(=O)c1c(C)c2cnc(Nc3ccc(N4CCN(C(=O)CCc5cccc6c5CN(C5CCC(=O)NC5=O)C6=O)CC4)cn3)nc2n(C2CCCC2)c1=O` (stereo not shown) [YX039-124, 3-(4-(3-(4-(6-((6-acetyl-8-cyclopentyl-5-methyl-7-oxo-7,8-dihydropyrido[2,3-d]pyrimidin-2-yl)amino)pyridin-3-yl)piperazin-1-yl)-3-oxopropyl)-1-oxoisoindolin-2-yl)piperidine-2,6-dione], the “suppression” value in the assay with CDK4/6 [1] is “especially effective in suppressing both CDK4/6 expression and CDK4/6 activity”.

In the case of `CC(=O)c1c(C)c2cnc(Nc3ccc(N4CCN(C(=O)CCc5cccc6c5C(=O)N(C5CCC(=O)NC5=O)C6=O)CC4)cn3)nc2n(C2CCCC2)c1=O` (stereo not shown) [YX039-147, 4-(3-(4-(6-((6-acetyl-8-cyclopentyl-5-methyl-7-oxo-7,8-dihydropyrido[2,3-d]pyrimidin-2-yl)amino)pyridin-3-yl)piperazin-1-yl)-3-oxopropyl)-2-(2,6-dioxopiperidin-3-yl)isoindoline-1,3-dione], the “suppression” value with CDK4/6 [1] was “especially effective in suppressing both CDK4/6 expression and CDK4/6 activity”.

With `CC(=O)c1c(C)c2cnc(Nc3ccc(N4CCCN(C(=O)CCCCCC(=O)N[C@H](C(=O)N5C[C@H](O)C[C@H]5C(=O)NCc5ccc(-c6scnc6C)cc5)C(C)(C)C)CC4)cn3)nc2n(C2CCCC2)c1=O` [YX044-18, (2S,4R)-1-((S)-2-(7-(4-(6-((6-acetyl-8-cyclopentyl-5-methyl-7-oxo-7,8-dihydropyrido[2,3-d]pyrimidin-2-yl)amino)pyridin-3-yl)-1,4-diazepan-1-yl)-7-oxoheptanamido)-3,3-dimethylbutanoyl)-4-hydroxy-N-(4-(4-methylthiazol-5-yl)benzyl)pyrrolidine-2-carboxamide], in the assay on CDK4/6 [2], the “efficacy in inhibiting both CDK4/6 expression and CDK4/6 activity (decreased Rb phosphorylation)” value was “efficacy of CDK4/6 degraders, particularly XY028-133 and YX044-18”.
